Source: ChEMBL document CHEMBL1137998 (Bioorg Med Chem Lett, 2004)

How the values were obtained:
HeLa = experiment: Concentration required to inhibit growth of human cervical HeLa carcinoma cell line; type: functional, cell-based
PC-3 = experiment: Concentration required to inhibit growth of human prostate PC-3 carcinoma cell line; type: functional, cell-based
DNA topoisomerase 1 = biological target: T1, DNA topoisomerase 1 (Homo sapiens, UniProt P11387); experiment: Effective concentration against DNA topoisomerase I
T1 sequence (P11387 whole entry): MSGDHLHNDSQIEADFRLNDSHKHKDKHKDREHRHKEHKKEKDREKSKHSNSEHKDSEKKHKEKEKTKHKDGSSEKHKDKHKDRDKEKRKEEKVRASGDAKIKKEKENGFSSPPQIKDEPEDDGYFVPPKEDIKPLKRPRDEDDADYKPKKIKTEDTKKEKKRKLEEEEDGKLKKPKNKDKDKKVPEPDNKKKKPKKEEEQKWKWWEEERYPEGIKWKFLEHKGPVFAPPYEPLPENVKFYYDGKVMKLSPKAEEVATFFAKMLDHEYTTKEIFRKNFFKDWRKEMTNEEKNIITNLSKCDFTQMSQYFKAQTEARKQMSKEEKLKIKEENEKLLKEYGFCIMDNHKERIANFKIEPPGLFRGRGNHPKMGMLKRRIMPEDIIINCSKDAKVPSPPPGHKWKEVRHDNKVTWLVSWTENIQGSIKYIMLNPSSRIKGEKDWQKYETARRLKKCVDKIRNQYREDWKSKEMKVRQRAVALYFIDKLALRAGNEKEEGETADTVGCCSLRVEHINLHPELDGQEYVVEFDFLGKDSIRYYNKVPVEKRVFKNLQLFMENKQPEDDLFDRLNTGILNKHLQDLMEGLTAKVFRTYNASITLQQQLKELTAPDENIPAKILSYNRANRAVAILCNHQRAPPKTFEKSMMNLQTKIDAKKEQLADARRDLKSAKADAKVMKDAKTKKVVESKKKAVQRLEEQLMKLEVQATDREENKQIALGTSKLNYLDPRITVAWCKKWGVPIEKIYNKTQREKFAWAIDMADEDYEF

[1] = biological target: T2, DNA topoisomerase 1 (Homo sapiens) (UniProt P11387); experiment: Stability constant for DNA topoisomerase I complex in competitive DNA assay
T2 sequence (whole entry): T1 sequence (P11387 whole entry)

Compound | IC50 (HeLa; Homo sapiens, HeLa) | IC50 (PC-3; Homo sapiens, PC-3) | EC50 (DNA topoisomerase 1) | K app [1] | IC50 (HeLa; hela) | IC50 (PC-3; pc-3)
CCc1c2c(nc3ccc(O)cc13)-c1cc3c(c(=O)n1C2)COC(=O)[C@]3(O)CC (stereo in doubt; form 1) [7-ETHYL-10-HYDROXYCAMPTOTHECIN] | 0.0257 µM | 0.0356 µM | 0.32 µM | – | – | –
CC[C@@]1(O)C(=O)OCc2c1cc1n(c2=O)Cc2c-1nc1ccccc1c2Cc1ccccc1 | 0.0809 µM | 0.0512 µM | 4.56 µM | 0.24 min⁻¹ | – | –
CC[C@@]1(O)C(=O)OCc2c1cc1n(c2=O)Cc2c-1nc1cc3c(cc1c2-c1ccccc1)OCO3 | 0.0081 µM | 0.0081 µM | 0.15 µM | 0.005 min⁻¹ | – | –
CC[C@@]1(O)C(=O)OCc2c1cc1n(c2=O)Cc2c-1nc1cc3c(cc1c2C1CCCCC1)OCO3 | 0.009 µM | 0.0115 µM | 1 µM | 0.03 min⁻¹ | – | –
CCc1c2c(nc3ccc(O)cc13)-c1cc3c(c(=O)n1C2)COC(=O)[C@]3(O)CC (stereo in doubt; form 2) | – | – | – | 0.12 min⁻¹ | – | –
CC[C@@]1(O)C(=O)OCc2c1cc1n(c2=O)Cc2cc3ccccc3nc2-1 [CAMPTOTHECIN] | 0.117 µM | 1.41 µM | – | 0.14 min⁻¹ | – | –
CCc1c2c(nc3ccc(O)cc13)-c1cc3c(c(=O)n1C2)COC(=O)[C@]3(O)CC (stereo in doubt; form 2) [7-ETHYL-10-HYDROXYCAMPTOTHECIN] | – | – | 0.07 µM | – | 0.0388 µM | 0.0353 µM
CC[C@@]1(O)C(=O)OCc2c1cc1n(c2=O)Cc2c-1nc1ccccc1c2CC(C)C | 1.31 µM | 0.171 µM | 0.45 µM | 0.11 min⁻¹ | – | –
CC[C@@]1(O)C(=O)OCc2c1cc1n(c2=O)Cc2c-1nc1cc3c(cc1c2-c1ccc(Cl)cc1)OCO3 | 0.026 µM | 0.0082 µM | 1.16 µM | 0.008 min⁻¹ | – | –
CC[C@@]1(O)C(=O)OCc2c1cc1n(c2=O)Cc2cc3cc4c(cc3nc2-1)OCO4 | 0.0096 µM | 0.0081 µM | – | 0.05 min⁻¹ | – | –
CC[C@@]1(O)C(=O)OCc2c1cc1n(c2=O)Cc2c-1nc1cc3c(cc1c2-c1ccc(F)cc1)OCO3 | 0.0162 µM | 0.0063 µM | 1.39 µM | 0.004 min⁻¹ | – | –
CC[C@@]1(O)C(=O)OCc2c1cc1n(c2=O)Cc2c-1nc1ccccc1c2C(C)(C)C | 0.204 µM | 0.308 µM | 0.24 µM | 0.26 min⁻¹ | – | –
CCc1c2c(nc3cc4c(cc13)OCO4)-c1cc3c(c(=O)n1C2)COC(=O)[C@]3(O)CC | 0.0139 µM | 0.01 µM | 0.27 µM | 0.03 min⁻¹ | – | –
CC[C@@]1(O)C(=O)OCc2c1cc1n(c2=O)Cc2c-1nc1cc3c(cc1c2-c1ccc(C)cc1)OCO3 | 0.002 µM | 0.0083 µM | 1.04 µM | 0.005 min⁻¹ | – | –
CC[C@@]1(O)C(=O)OCc2c1cc1n(c2=O)Cc2c-1nc1cc3c(cc1c2-c1ccc(C(F)(F)F)cc1)OCO3 | 0.0069 µM | 0.0134 µM | 0.16 µM | 0.007 min⁻¹ | – | –
CC[C@@]1(O)C(=O)OCc2c1cc1n(c2=O)Cc2c-1nc1cc3c(cc1c2Cc1ccccc1)OCO3 | 0.0205 µM | 0.0189 µM | 1.95 µM | 0.05 min⁻¹ | – | –
CCc1c2c(nc3ccc(O)cc13)-c1cc3c(c(=O)n1C2)COC(=O)[C@]3(O)CC (stereo in doubt; form 1) | – | – | – | 0.06 min⁻¹ | – | –
CC[C@@]1(O)C(=O)OCc2c1cc1n(c2=O)Cc2c-1nc1cc3c(cc1c2C1CCCC1)OCO3 | 0.0062 µM | 0.009 µM | 0.19 µM | 0.02 min⁻¹ | – | –
CCCCc1c2c(nc3ccccc13)-c1cc3c(c(=O)n1C2)COC(=O)[C@]3(O)CC | 0.0373 µM | 0.0487 µM | 0.2 µM | 0.05 min⁻¹ | – | –
